# According to ChEMBL document CHEMBL1201862, “PubChem BioAssay data set” (2004):
#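 Cultured in 96-well plates, cells were exposed to test compound for 48 hours across five concentrations. GI50: concentration for 50% inhibition of growth.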 Activity calls are given as the source filed them. Cut-off read from the data, not from the text of the source: active = GI50 up to about 1.1 µM and inactive = higher.
# Experiments:
# Test in all cases: NCI anticancer screen, dose series, 48 h
# HOP-92 = tested on: HOP-92
# SF-539 = tested on: SF-539
# CCRF-CEM = tested on: CCRF-CEM
# OVCAR-8 = tested on: OVCAR-8
# 786-0 = tested on: 786-0
# NCI-H23 = tested on: NCI-H23
# RXF 393 = tested on: RXF 393
# COLO 205 = tested on: COLO 205
# HCC 2998 = tested on: HCC 2998
# OVCAR-3 = tested on: OVCAR-3
# HCT-15 = tested on: HCT-15
# SK-MEL-5 = tested on: SK-MEL-5
# TK-10 = tested on: TK-10
# NCI/ADR-RES = tested on: NCI/ADR-RES
# MOLT-4 = tested on: MOLT-4
# Malme-3M = tested on: Malme-3M
# IGROV-1 = tested on: IGROV-1
# NCI-H460 = tested on: NCI-H460
# BT-549 = tested on: BT-549
# SK-OV-3 = tested on: SK-OV-3
# OVCAR-5 = tested on: OVCAR-5
# MDA-MB-435 = tested on: MDA-MB-435
# KM12 = tested on: KM12
# RPMI-8226 = tested on: RPMI-8226
# UO-31 = tested on: UO-31
# PC-3 = tested on: PC-3
# ACHN = tested on: ACHN
# A498 = tested on: A498
# LOX IMVI = tested on: LOX IMVI
# HCT-116 = tested on: HCT-116
# SF-295 = tested on: SF-295
# K562 = tested on: K562
# MDA-MB-231 = tested on: MDA-MB-231
# SK-MEL-28 = tested on: SK-MEL-28
# EKVX = tested on: EKVX
# UACC-257 = tested on: UACC-257
# HT-29 = tested on: HT-29
# NCI-H522 = tested on: NCI-H522
# UACC-62 = tested on: UACC-62
# SN12C = tested on: SN12C
# OVCAR-4 = tested on: OVCAR-4
# HOP-62 = tested on: HOP-62
# DU-145 = tested on: DU-145
# MCF7 = tested on: MCF7
# T47D = tested on: T47D
# HL-60 = tested on: HL-60
# SNB-75 = tested on: SNB-75
# SR = tested on: SR
# A549 = tested on: A549
# SW-620 = tested on: SW-620
# U-251 = tested on: U-251
# M14 = tested on: M14
# MDA-N = tested on: MDA-N
# SF-268 = tested on: SF-268
# SNB-19 = tested on: SNB-19
# Hs-578T = tested on: Hs-578T
# CAKI-1 = tested on: CAKI-1
# NCI-H226 = tested on: NCI-H226
# SK-MEL-2 = tested on: SK-MEL-2
smiles,measurement,setting,value
O=C(/C=C/c1ccc(Cl)cc1)c1ccc(Cl)s1,GI50,HOP-92,82.4 µM (inactive)
same,GI50,SF-539,36.5 µM (inactive)
same,GI50,CCRF-CEM,27 µM (inactive)
same,GI50,OVCAR-8,55.8 µM (inactive)
same,GI50,786-0,32.9 µM (inactive)
same,GI50,NCI-H23,38.9 µM (inactive)
same,GI50,RXF 393,23.2 µM (inactive)
same,GI50,COLO 205,70.8 µM (inactive)
same,GI50,HCC 2998,22.2 µM (inactive)
same,GI50,OVCAR-3,58.7 µM (inactive)
same,GI50,HCT-15,60.3 µM
same,GI50,SK-MEL-5,> 10 µM (inactive)
same,GI50,TK-10,85.3 µM (inactive)
same,GI50,NCI/ADR-RES,72.1 µM (inactive)
same,GI50,MOLT-4,27.7 µM (inactive)
same,GI50,Malme-3M,> 100 µM (inactive)
same,GI50,IGROV-1,49.2 µM (inactive)
same,GI50,NCI-H460,67.8 µM (inactive)
same,GI50,BT-549,27 µM (inactive)
same,GI50,SK-OV-3,98.6 µM (inactive)
same,GI50,OVCAR-5,> 100 µM (inactive)
same,GI50,MDA-MB-435,> 10 µM (inactive)
same,GI50,KM12,29.1 µM (inactive)
same,GI50,RPMI-8226,17.8 µM (inactive)
same,GI50,UO-31,51.8 µM (inactive)
same,GI50,PC-3,63 µM (inactive)
same,GI50,ACHN,87.3 µM (inactive)
same,GI50,A498,19.1 µM (inactive)
same,GI50,LOX IMVI,12.2 µM (inactive)
same,GI50,HCT-116,10.5 µM (inactive)
same,GI50,SF-295,78.3 µM (inactive)
same,GI50,K562,30.3 µM (inactive)
same,GI50,MDA-MB-231,60.7 µM (inactive)
same,GI50,SK-MEL-28,50.1 µM (inactive)
same,GI50,EKVX,68.9 µM (inactive)
same,GI50,UACC-257,> 100 µM (inactive)
same,GI50,HT-29,42.3 µM (inactive)
same,GI50,NCI-H522,64.1 µM (inactive)
same,GI50,UACC-62,23.4 µM (inactive)
same,GI50,SN12C,> 100 µM (inactive)
same,GI50,OVCAR-4,69 µM (inactive)
same,GI50,HOP-62,> 100 µM (inactive)
same,GI50,DU-145,> 100 µM (inactive)
same,GI50,MCF7,4.8 µM (inactive)
same,GI50,T47D,46 µM (inactive)
same,GI50,HL-60,24.3 µM (inactive)
same,GI50,SNB-75,39 µM (inactive)
same,GI50,SR,34.3 µM (inactive)
same,GI50,A549,62.2 µM (inactive)
same,GI50,SW-620,22 µM (inactive)
same,GI50,U-251,32.6 µM (inactive)
same,GI50,M14,44.1 µM (inactive)
same,GI50,MDA-N,28.4 µM (inactive)
same,GI50,SF-268,72.1 µM (inactive)
same,GI50,SNB-19,50.5 µM (inactive)
same,GI50,Hs-578T,40.5 µM (inactive)
COc1ccc(N2CCN(c3ccc4c(c3)NCC(=O)N4)CC2)cc1,GI50,HOP-92,23.5 µM (inactive)
same,GI50,SF-539,23.6 µM (inactive)
same,GI50,CCRF-CEM,29.7 µM (inactive)
same,GI50,OVCAR-8,26.7 µM (inactive)
same,GI50,786-0,32.2 µM (inactive)
same,GI50,CAKI-1,64.4 µM (inactive)
same,GI50,NCI-H23,60.7 µM (inactive)
same,GI50,COLO 205,43 µM (inactive)
same,GI50,HCC 2998,> 100 µM (inactive)
same,GI50,OVCAR-3,28.8 µM (inactive)
same,GI50,HCT-15,49.5 µM
same,GI50,SK-MEL-5,42.8 µM (inactive)
same,GI50,TK-10,41.8 µM (inactive)
same,GI50,NCI/ADR-RES,21.9 µM (inactive)
same,GI50,MOLT-4,60.7 µM (inactive)
same,GI50,Malme-3M,23.1 µM (inactive)
same,GI50,IGROV-1,45.8 µM (inactive)
same,GI50,NCI-H460,> 100 µM (inactive)
same,GI50,BT-549,34 µM (inactive)
same,GI50,SK-OV-3,91.6 µM (inactive)
same,GI50,OVCAR-5,54.7 µM (inactive)
same,GI50,MDA-MB-435,> 100 µM (inactive)
same,GI50,KM12,21.3 µM (inactive)
same,GI50,RPMI-8226,21.4 µM (inactive)
same,GI50,UO-31,26.9 µM (inactive)
same,GI50,PC-3,36.2 µM (inactive)
same,GI50,ACHN,32.3 µM (inactive)
same,GI50,LOX IMVI,41.4 µM (inactive)
same,GI50,HCT-116,42.5 µM (inactive)
same,GI50,SF-295,69.2 µM (inactive)
same,GI50,K562,28.8 µM (inactive)
same,GI50,MDA-MB-231,34.4 µM (inactive)
same,GI50,SK-MEL-28,> 100 µM (inactive)
same,GI50,EKVX,39.2 µM (inactive)
same,GI50,UACC-257,95.5 µM (inactive)
same,GI50,NCI-H226,> 100 µM (inactive)
same,GI50,HT-29,> 100 µM (inactive)
same,GI50,NCI-H522,14.6 µM (inactive)
same,GI50,UACC-62,25.3 µM (inactive)
same,GI50,SN12C,70.6 µM (inactive)
same,GI50,SK-MEL-2,37.3 µM (inactive)
same,GI50,OVCAR-4,32.1 µM (inactive)
same,GI50,HOP-62,> 100 µM (inactive)
same,GI50,DU-145,> 100 µM (inactive)
same,GI50,MCF7,> 100 µM (inactive)
same,GI50,T47D,15.4 µM (inactive)
same,GI50,HL-60,17.1 µM (inactive)
same,GI50,SNB-75,26.9 µM (inactive)
same,GI50,SR,9.75 µM (inactive)
same,GI50,A549,66.2 µM (inactive)
same,GI50,SW-620,61.5 µM (inactive)
same,GI50,U-251,25.6 µM (inactive)
same,GI50,M14,52.5 µM (inactive)
same,GI50,MDA-N,> 100 µM (inactive)
same,GI50,SF-268,74.1 µM (inactive)
same,GI50,SNB-19,59.4 µM (inactive)
same,GI50,Hs-578T,25.3 µM (inactive)
